The values below come from patent US7582675B2, “Flavonoid compound and process for producing the same” (Pokka Corporation, priority 2001, dated 2009).

“Also recorded” adds a separate entry of the source. Bounds are passed on as bounds.

The nature of data set [1]: radical scavenging ability measurement (DPPH), antioxidative activity in a hydrophilic solvent. The data set is classed as biochemical. Conditions: samples 0.1, 1 and 10 μM, 20 minutes at room temperature, FIG. 1. As for the experimental part: The antioxidative activity in a hydrophilic solvent was measured for hesperidin (HE) and the isolated 8-hydroxyhesperetin (8OH-HE). It should be noted that antioxidative activity was measured in accordance with the radical scavenging ability measurement method described in Yamaguchi, et al., Biosci. Biotechnol. Biochem., 62, 1201-1204, 1998. More specifically, an 8OH-HE sample solution and HE sample solution were first prepared having concentrations of 0.1 μM, 1 μM and 10 μM by dissolving 8OH-HE or HE in ethanol. 200 μL of each sample solution was then mixed into 800 μL of 0.1 M Tris-HCl buffer (pH 7.4). 1 ml of 500 μM DPPH (1,1-diphenyl-2-picrylhydrazyl) in ethanol was added to each mixture to prepare reaction solutions. After adequately mixing the reaction solutions, they were allowed to react for 20 minutes in a dark location at room temperature. Next, 20 μL of each reaction solution was injected into an analytical HPLC system (LC-10A) using a microsyringe to analyze the DPPH concentration. The DPPH concentration was calculated from peak area of DPPH. […] Using 200 μL of a solution of ethanol only instead of the sample solutions for the control, the peak area of DPPH was similarly measured for the control by HPLC analysis. The radical scavenging activity (%) of 8OH-HE and HE were then determined according to the calculation formula indicated in Formula 1. […]
(In general: Loss of DPPH colour is used to gauge radical scavenging.)

The nature of data set [2]: lipid peroxidation of methyl linoleate by HPLC, antioxidative activity in a hydrophobic solvent. Conditions: 100 μM sample solutions, 40° C. for 18 hours, FIG. 2, listed as 8OH-HE. The format is biochemical. The protocol:
The antioxidative activity in a hydrophobic solvent was measured for hesperidin (HE), isolated 8-hydroxyhesperetin (8OH-HE) and α-tocopherol (Toc), a compound that is known to have a high level of antioxidative activity. Incidentally, antioxidative activity was measured by HPLC analysis using methyl linoleate as described in Terao J., et al., Lipids, 21(4), 255-260, 1986.
More specifically, an 8OH-HE sample solution, HE sample solution and Toc sample solution having concentrations of 100 μM were first prepared by dissolving 8OH-HE, HE and Toc in ethanol. 89 mg (100 μL) aliquots of methyl linoleate were each weighed into three small test tubes having an inner diameter of 14 mm. 100 μL of each sample solution was added to the three test tubes and mixed well to prepare mixtures.
Next, each of the mixtures was dried by completely removing the solvent by placing each test tube in a vacuum desiccator in which pressure was reduced using a vacuum pump. […] The sum of the HPLC peak areas of 13-hydroperoxide and 9-hydroperoxide formed by the methyl linoleate was then determined.
Moreover, HPLC analysis was also performed using 100 μL of a solution of ethanol only instead of the sample solutions for the control. The sum of the HPLC peak areas of the control was also determined. The degree of lipid peroxidation (%) of each sample was then determined from Formula 2. […]

Data set [3] in a line: solubility. The format is physicochemical.
Data set [4] is described as follows: antioxidative action (general statement, no test named). Conditions: general statement in the description.

Take `COc1ccc(C2CC(=O)c3c(O)cc(O)c(O)c3O2)cc1O` (stereo not shown) [8-hydroxyhesperetin, 3′,5,7,8-tetrahydroxy-4′-methoxyflavonone]: the “antioxidative activity (radical scavenging activity)” value in data set [1] is given as “much higher level of antioxidative activity than HE”. Also, the “antioxidative activity (degree of lipid peroxidation)” value in data set [2] is “much higher level of antioxidative activity than HE; also recorded: antioxidative activity that was comparable to α-tocopherol”. Moreover, in data set [3] (methanol, ethanol, DMSO), the “solubility in methanol, ethanol and dimethyl sulfoxide (DMSO)” value was “easily dissolves”. The solubility in water entry in data set [3] (water) is listed as “somewhat soluble”. The antioxidative action entry in data set [4] was “extremely high level of antioxidative action comparable to that of α-tocopherol”; in data set [4] (listed as 8-Hydroxyhesperetin), “remarkably high antioxidative action as compared with hesperidin and hesperetin”.

For the compound `COc1ccc([C@@H]2CC(=O)c3c(O)cc(O[C@@H]4O[C@H](CO[C@@H]5O[C@@H](C)[C@H](O)[C@@H](O)[C@H]5O)[C@@H](O)[C@H](O)[C@H]4O)cc3O2)cc1O` [hesperidin, reference compound], the “saturation concentration (solubility limit) in the medium” value in data set [3] (culture medium, varies with the amount of organic solvent added) was at most 0.3 % by weight.
